Data: PubChem BioAssay (NCI)
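Tested at 5 concentrations; 48 h exposure; 96-well plates; endpoints linearly interpolated, else capped at highest concentration. GI50 = concentration required for 50% inhibition of growth. TGI marks complete inhibition of growth.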 *1 amine or outer side, *2 acyl side, *3 side chain or, on linkers, in order; H or OH if unused. Where a SMILES comes first, the peptide text is derived from it. Bridges are numbered along the chain shown (N, C = ends). [ ]: non-standard residue; d: D form. The star is where a group is joined. X19 = O=C([C@H](N[*:1])c1ccc(O[C@H]2O[C@@H](CO)[C@@H](O)[C@@H](O)[C@H]2O[C@@H]2O[C@H](CO)[C@H](O)[C@H](O)[C@@H]2O)cc1)[*:2]; X18 = NC(=O)[C@@H](O[*:3])[C@H](N[*:1])C(=O)[*:2]; X20 = O=C([C@H](N[*:1])c1ccc(O)c(Cl)c1)[*:2]; d(aThr) = C[C@@H](O)[C@@H](N)C(=O)O; dHpg = N[C@@H](C(=O)O)c1ccc(O)cc1; X17 = CC(C)C/C=C/C=C/C(=O)*; dOrn = NCCC[C@@H](N)C(=O)O

Assays:
Assay in all cases: NCI anticancer screen, dose series, 48 h
DU-145 prostate = system: DU-145 prostate
K-562 leukemia = system: K-562 leukemia
IGROV1 ovarian = system: IGROV1 ovarian
SK-MEL-28 melanoma = system: SK-MEL-28 melanoma
MALME-3M melanoma = system: MALME-3M melanoma
HCC-2998 colon = system: HCC-2998 colon
MDA-MB-231 breast = system: MDA-MB-231 breast
HOP-92 NSCLC = system: HOP-92 NSCLC
CCRF-CEM leukemia = system: CCRF-CEM leukemia
SR leukemia = system: SR leukemia

SMILES	GI50 (DU-145 prostate) [µM]	TGI (DU-145 prostate) [µM]	GI50 (K-562 leukemia) [µM]	TGI (K-562 leukemia) [µM]	GI50 (IGROV1 ovarian) [µM]	TGI (IGROV1 ovarian) [µM]	GI50 (SK-MEL-28 melanoma) [µM]	TGI (SK-MEL-28 melanoma) [µM]	GI50 (MALME-3M melanoma) [µM]	TGI (MALME-3M melanoma) [µM]	GI50 (HCC-2998 colon) [µM]	TGI (HCC-2998 colon) [µM]	GI50 (MDA-MB-231 breast) [µM]	TGI (MDA-MB-231 breast) [µM]	GI50 (HOP-92 NSCLC) [µM]	TGI (HOP-92 NSCLC) [µM]	GI50 (CCRF-CEM leukemia) [µM]	TGI (CCRF-CEM leukemia) [µM]	GI50 (SR leukemia) [µM]	TGI (SR leukemia) [µM]
O=C(O[C@H]1CN[C@H](C#Cc2cc3ncnc(Nc4ccc(OCc5cccc(F)c5)c(Cl)c4)c3s2)C1)N1CCOCC1	5.96	> 25	11.1	> 25	2.69	> 25	12.4	> 25	4.95	10.2	5.01	12.6	5.09	14.5	1.45	9.96	2.2	> 22	8.01	> 23.7
O=C(NC1CCN(Cc2ccccc2)CC1)c1cc(C(=O)NC2CCN(Cc3ccccc3)CC2)cc(C(=O)NC2CCN(Cc3ccccc3)CC2)c1	18.2	> 50	2	> 50	25.2	> 50	2.81	9.5	1.12	2.52	7.37	16.6	2.57	11.6	5.55	12.3	1.75	5.17	8.74	26.2
C[C@@H](Oc1cc(NS(=O)(=O)N2CCC2)nc(SCc2cccc(F)c2F)n1)[C@@H](O)CO	> 100	> 100	> 100	> 100	> 100	> 100	> 100	> 100	> 100	> 100	> 100	> 100	> 100	> 100	> 100	> 100	> 100	> 100	> 100	> 100
CC(C)C/C=C/C=C/C(=O)N[C@@H](CC(N)=O)C(=O)N[C@@H]1C(=O)N[C@H](c2ccc(O)cc2)C(=O)N[C@H](CCCN)C(=O)N[C@H]([C@@H](C)O)C(=O)N[C@H](c2ccc(O)cc2)C(=O)N[C@H](c2ccc(O)cc2)C(=O)N[C@H]([C@H](C)O)C(=O)N[C@H](Cc2ccccc2)C(=O)N[C@H](CCCN)C(=O)N[C@H](c2ccc(O[C@H]3O[C@@H](CO)[C@@H](O)[C@@H](O)[C@H]3O[C@@H]3O[C@H](CO)[C@H](O)[C@H](O)[C@@H]3O)cc2)C(=O)N[C@H]([C@H](C)O)C(=O)N[C@H](c2ccc(O)cc2)C(=O)NCC(=O)N[C@H](CC(C)C)C(=O)N[C@H](C)C(=O)N[C@H](c2ccc(O)c(Cl)c2)C(=O)O[C@@H]1C(N)=O (X17-N[X18][dHpg][dOrn][d(aThr)][dHpg][dHpg][dT][dF][dOrn][X19][dT][dHpg]G[dL][dA][X20]; ester 2-C)	37.4	> 100	36.3	> 100	> 100	> 100	23.6	47.8	29.7	65.5	57.2	> 100	16.1	39.6	80	> 100			> 100	> 100
C#Cc1cccc(Nc2ncnc3ccc(-c4cnc(Cl)c(NS(C)(=O)=O)c4)cc23)c1	0.434	6.99	0.682	> 100	0.075	0.402	0.182	1.93	0.0924	0.862	0.416	1.78	0.44	3.66	0.078	0.835	0.236	28.8	0.338	6.35
